Laboratory results reported in patent EP0307553B1, “Modified splenopentines, their process of preparation and their use” (priority 1987, dated 1989).

Legend:
[1] = tested on: Monocyten bzw. Lymphocytensubpopulationen; test: Cytofluorimetric quantification of monocytes and lymphocyte subpopulations in a patient with secondary immunodeficiency; type: in vivo, Patientin; conditions: for DR^+-Monocyten (Gpt/l): before treatment 0,02, normal 0 -0,6; for CD 4 (Gpt/l): before treatment 0,03, normal 0,6 - 1,3; for CD 3 (Gpt/l): before treatment 0,04, normal 1,0 - 2,0; for Lymphocyten (Gpt/l): before treatment 0,28, normal 1,5 - 3,5; for CD 4/ CD 8: before treatment 0,58, normal 1,5 - 3,0; for DR^+-Monocyten (%): before treatment 16, normal 65 - 90
NMRI-Mäuse [2] = test: Antigen-specific IgM response against sheep erythrocytes in normal mice (Jerne plaque test, Fig. 1); type: in vivo; conditions: 3x at 24 h intervals, 0,5 mg/kg, independent of route of application
Excerpt: (§1) Der Einfluß von DAc-SP5 und immunsuppressiv wirkenden Verbindungen auf die Antigen-spezifische IgM-Antwort bei Mäusen wurde untersucht. Die erhaltenen Ergebnisse sind in den Fig.1 und 2 dargestellt.
Tiere: männliche NMRI-Mäuse (Koloniezucht) im Alter von 2-2,5 Monaten. Methodik des Jerne-Plaquetests entsprechend R. Eckert und G. Pasternak, Acta biol. med. germ. 31: 127-137 (1973), n= 16 (NaCl-Kontrolle), n= 8 (DAc-SP5-Versuche).

[3] = tested on: HIV-infizierten Patienten; test: Therapy of HIV-infected patients
NMRI-Mäuse [4] = test: Chemically induced suppression of the humoral immune response (cyclophosphamide, dexamethasone; Fig. 2); type: in vivo
Excerpt: as §1
DAc-SP5 rekonstituiert bereits durch wenige aufeinanderfolgende Applikationen die chemisch induzierts Suppression der humoralen Immunantwort.

männlichen Balb/c-Mäusen = test: Chronic alcohol intoxication: parameters of the immune system; type: in vivo, Mäuse; conditions: 5x daily before test, n=40
[5] = tested on: Knochenmark-stammzellen von C57 Bl-Mäusen; test: Colony formation test: mouse bone marrow stem cells co-cultured with human leukocytes in agar; type: cell-based; conditions: without DAc-SP5 = 100 %
[6] = Histopathological lung changes after infection, hamster; type: in vivo, syrischen Hamster; conditions: Hamster (TCID₅₀ = 2 x 10^3,5)
[7] = Histopathological lung changes after infection, mouse; type: in vivo, Maus (Balb/c); conditions: Maus (TCID = 10^3,5)
Coxsackievirus B4 = test: Histologically confirmed pancreatitis after Coxsackievirus infection; type: in vivo, Balb/c-Mäuse
Milzzellen/Ratte = test: Radioligand binding study, rat spleen cells
[8] = HIV-infected patients (Tab. 6.1.)
[9] = 15 % Ethanol over 1,5 months + 0,1 mg DAc-SP5 i.p.
[10] = no Ethanol, 0,1 mg DAc-SP5 i.p.
[11] = therapy before infection: 0,5 mg/kg s.c. 3 x per week during 2 weeks before infection
[12] = therapy during infection: 0,5 mg/kg s.c. daily over 5 days from day of infection

Substance: (N^α-Acetyl-arginyl)(N^ε-acetyl-lysyl)glutamylvalyltyrosin [DAc-SP5]
- DR^+-Monocyten (Gpt/l) ([1]; 2 weeks of therapy): 0,08 Gpt/l
- CD 4 (Gpt/l) ([1]; 2 weeks of therapy): 0,29 Gpt/l
- CD 3 (Gpt/l) ([1]; 2 weeks of therapy): 0,39 Gpt/l
- Lymphocyten (Gpt/l) ([1]; 2 weeks of therapy): 0,84 Gpt/l
- CD 4/ CD 8 ([1]; 2 weeks of therapy): 2,3
- DR^+-Monocyten (%) ([1]; 2 weeks of therapy): 22%
- DR^+-Monocyten (Gpt/l) ([1]; 3 weeks of therapy): 0,26 Gpt/l
- CD 4 (Gpt/l) ([1]; 3 weeks of therapy): 0,34 Gpt/l
- CD 3 (Gpt/l) ([1]; 3 weeks of therapy): 0,55 Gpt/l
- Lymphocyten (Gpt/l) ([1]; 3 weeks of therapy): 0,74 Gpt/l
- CD 4/ CD 8 ([1]; 3 weeks of therapy): 2,2
- DR^+-Monocyten (%) ([1]; 3 weeks of therapy): 62%
- DR^+-Monocyten (Gpt/l) ([1]; 4 weeks of therapy): 0,60 Gpt/l
- CD 4 (Gpt/l) ([1]; 4 weeks of therapy): 0,38 Gpt/l
- CD 3 (Gpt/l) ([1]; 4 weeks of therapy): 0,67 Gpt/l
- Lymphocyten (Gpt/l) ([1]; 4 weeks of therapy): 0,83 Gpt/l
- CD 4/ CD 8 ([1]; 4 weeks of therapy): 2,4
- DR^+-Monocyten (%) ([1]; 4 weeks of therapy): 72%
- Stärke und Kinetik der IgM-Antwort von Mäusen gegen Schafserythrocyten (NMRI-Mäuse [2]): keinen siknifikanten Einfluß
- CD4⁺/CD8⁺-Verhältnisses [3, 8]: Verbesserung
- Gesamtlymphocytenzahl [3, 8]: Anhebung der Gesamtlymphocytenzahl in den Kontrollbereich
- Nebenwirkungen ([3]; HIV-infected patients, after 16 weeks of therapy): keine Nebenwirkungen
- Suppression der Antigen-spezifischen IgM-Antwort nach Cyclophosphamid (NMRI-Mäuse [4]; Cyclophosphamid 7,2 mg/Tier i. p. once, DAc-SP5 0,5 mg/kg s. c. on the 4 following days): teilweise rekonstituiert
- Reduktion der Antigen-spezifischen IgM-Antwort durch Dexamethason (NMRI-Mäuse [4]; Dexamethason 0,2 or 0,08 mg/Tier i. p., DAc-SP5 0,5 mg/kg s. c. on the two following days): vollständig rekonstituiert
- % phagocytierende Peritonealzellen (männlichen Balb/c-Mäusen; [9]): 47,5±1,7%
- Milzmasse (mg) (männlichen Balb/c-Mäusen; [9]): 82,0±5,6 mg
- Phagocytoseindex (männlichen Balb/c-Mäusen; [9]): 4,5±0,1
- Plaque-bildende Zellen der Milz pro 10⁶ Zellen (Jerne-Plaquetest) (männlichen Balb/c-Mäusen; [9]): 214,3±5,9 pro 10⁶ Zellen
- Thymusmasse (mg) (männlichen Balb/c-Mäusen; [9]): 29,0±2,2 mg
- % phagocytierende Peritonealzellen (männlichen Balb/c-Mäusen; [10]): 75,0±2,6%
- Milzmasse (mg) (männlichen Balb/c-Mäusen; [10]): 95,0±7,1 mg
- Phagocytoseindex (männlichen Balb/c-Mäusen; [10]): 4,9±0,15
- Plaque-bildende Zellen der Milz pro 10⁶ Zellen (Jerne-Plaquetest) (männlichen Balb/c-Mäusen; [10]): 285,0±11,3 pro 10⁶ Zellen
- Thymusmasse (mg) (männlichen Balb/c-Mäusen; [10]): 40,0±3,0 mg
- Zell-"Kolonien" pro 10^5 Knochenmarkzellen, Prozentuale Angabe ([5]; leukocytes of Kontroll-personen, Exp. A, 1 µg DAc-SP5 per 1 ml agar): 99%
- Zell-"Kolonien" pro 10^5 Knochenmarkzellen, Prozentuale Angabe ([5]; leukocytes of Kontroll-personen, Exp. A, 2 µg DAc-SP5 per 1 ml agar): 98%
- Zell-"Kolonien" pro 10^5 Knochenmarkzellen, Prozentuale Angabe ([5]; leukocytes of Kontroll-personen, Exp. A, 10 µg DAc-SP5 per 1 ml agar): 114%
- Zell-"Kolonien" pro 10^5 Knochenmarkzellen, Prozentuale Angabe ([5]; leukocytes of Kontroll-personen, Exp. A, 20 µg DAc-SP5 per 1 ml agar): 125%
- Zell-"Kolonien" pro 10^5 Knochenmarkzellen, Prozentuale Angabe ([5]; leukocytes of Kontroll-personen, Exp. B, 1 µg DAc-SP5 per 1 ml agar): 135%
- Zell-"Kolonien" pro 10^5 Knochenmarkzellen, Prozentuale Angabe ([5]; leukocytes of Kontroll-personen, Exp. B, 2 µg DAc-SP5 per 1 ml agar): 136%
- Zell-"Kolonien" pro 10^5 Knochenmarkzellen, Prozentuale Angabe ([5]; leukocytes of Kontroll-personen, Exp. B, 10 µg DAc-SP5 per 1 ml agar): 147%
- Zell-"Kolonien" pro 10^5 Knochenmarkzellen, Prozentuale Angabe ([5]; leukocytes of Kontroll-personen, Exp. B, 20 µg DAc-SP5 per 1 ml agar): 137%
- Zell-"Kolonien" pro 10^5 Knochenmarkzellen, Prozentuale Angabe ([5]; leukocytes of Patienten (Systemischer Lupus Erythe-matodes), Exp. A, 1 µg DAc-SP5 per 1 ml agar): 180%
- Zell-"Kolonien" pro 10^5 Knochenmarkzellen, Prozentuale Angabe ([5]; leukocytes of Patienten (Systemischer Lupus Erythe-matodes), Exp. A, 2 µg DAc-SP5 per 1 ml agar): 316%
- Zell-"Kolonien" pro 10^5 Knochenmarkzellen, Prozentuale Angabe ([5]; leukocytes of Patienten (Systemischer Lupus Erythe-matodes), Exp. A, 10 µg DAc-SP5 per 1 ml agar): 270%
- Zell-"Kolonien" pro 10^5 Knochenmarkzellen, Prozentuale Angabe ([5]; leukocytes of Patienten (Systemischer Lupus Erythe-matodes), Exp. A, 20 µg DAc-SP5 per 1 ml agar): 256%
- Zell-"Kolonien" pro 10^5 Knochenmarkzellen, Prozentuale Angabe ([5]; leukocytes of Patienten (Systemischer Lupus Erythe-matodes), Exp. B, 2 µg DAc-SP5 per 1 ml agar): 873%
- Zell-"Kolonien" pro 10^5 Knochenmarkzellen, Prozentuale Angabe ([5]; leukocytes of Patienten (Systemischer Lupus Erythe-matodes), Exp. B, 10 µg DAc-SP5 per 1 ml agar): 642%
- Zell-"Kolonien" pro 10^5 Knochenmarkzellen, Prozentuale Angabe ([5]; leukocytes of Patienten (Systemischer Lupus Erythe-matodes), Exp. B, 20 µg DAc-SP5 per 1 ml agar): 438%
- Anzahl der Tiere mit histopathologischem Lungenbefund (%) [6, 11]: 100%
- Anzahl der Tiere mit histopathologischem Lungenbefund (%) [6, 12]: 10%
- Anzahl der Tiere mit histopathologischem Lungenbefund (%) [7, 11]: 100%
- Anzahl der Tiere mit histopathologischem Lungenbefund (%) [7, 12]: 0%
- Tiere mit Pankreatitis (in %, n = 10-15) (Coxsackievirus B4; Infektionsdosis (TCID₅₀) 10³, therapy during infection: 0,5 mg/kg s.c. daily over 5 days from day of infection): 0%
- Tiere mit Pankreatitis (in %, n = 10-15) (Coxsackievirus B4; Infektionsdosis (TCID₅₀) 10⁴, therapy before infection: 0,5 mg/kg s.c. 3 x per week during 2 weeks before infection): 80%
- Tiere mit Pankreatitis (in %, n = 10-15) (Coxsackievirus B4; Infektionsdosis (TCID₅₀) 10⁴, therapy during infection: 0,5 mg/kg s.c. daily over 5 days from day of infection): 0%
- Tiere mit Pankreatitis (in %, n = 10-15) (Coxsackievirus B4; Infektionsdosis (TCID₅₀) 10⁵, therapy before infection: 0,5 mg/kg s.c. 3 x per week during 2 weeks before infection): 100%
- Tiere mit Pankreatitis (in %, n = 10-15) (Coxsackievirus B4; Infektionsdosis (TCID₅₀) 10⁵, therapy during infection: 0,5 mg/kg s.c. daily over 5 days from day of infection): 60%
- Tiere mit Pankreatitis (in %, n = 10-15) (Coxsackievirus B4; Infektionsdosis (TCID₅₀) 10⁶, therapy before infection: 0,5 mg/kg s.c. 3 x per week during 2 weeks before infection): 100%
- Tiere mit Pankreatitis (in %, n = 10-15) (Coxsackievirus B4; Infektionsdosis (TCID₅₀) 10⁶, therapy during infection: 0,5 mg/kg s.c. daily over 5 days from day of infection): 100%

Substance: ³H-Splenopentin [³H-SP5]
- Radioligand-Dissoziationskonstante (KD, M) (Milzzellen/Ratte): keine verdrängbare Bindung
